Earlier results in patent US10561697B2, “Compositions based on saffron for the prevention and/or treatment of degenerative eye disorders” (Hortus Novus SRL, priority 2014, dated 2020).

How the values were obtained:
[1] = test system: rats affected by the P23H mutation in the rhodopsin gene; details: 100 mg/kg
[2] = test system: rats exposed to light; details: diet added with 0.2% of curcumin

COc1cc(/C=C/C(=O)CC(=O)/C=C/c2ccc(O)c(OC)c2)ccc1O [curcumin]
formation of rhodopsin aggregates [1]: active in inhibiting the formation of rhodopsin aggregates | morphology of the retina, photoreceptors preservation ([1]; transgenic rats): improvement in the morphology of the retina | onset of retinal oxidative and inflammatory stress [2]: reduction in the onset of retinal oxidative and inflammatory stress
